Assays:
Type in all cases: cell-based
[1] = tested on: Aspergillus Niger (IFO 6341), Penicillium funiculosum (IFO 6345), Rhizopus javanicus (IFO 6354), Aureobasidium pullulans (IFO 6353), Gliocladium virens (IFO …); test: Fungicide activity for wood fungicide, sum of average ratings and damage value over the five fungi
Description: (§1) This test was conducted according to Specification No.2 of Japan Wood Preserving Association, enacted in 1979 and titled "Test methods of fungicide activity for wood fungicide".
(§2) • ① Aspergillus niger van Tieghem IFO 6341 = ATCC 6275 • ② Penicillium funiculosum Thom (formerly : Penicillium luteum Zukal) IFO 6345 = ATCC 9644 • ③ Rhizopus javanicus Takeda (formerly : Rhizopus nigricans Ehrenberg S.N. 32) IFO 6354 • ④ Aureobasidium pullulans (de Bary) Arnaud IFO 6353 = IAM (H. Iizuka, F-24) • ⑤ Gliocladium virens Miller, Gidden & Fosteb IFO 6355 = ATCC 9645 (formerly : Trichoderma viride, T.I.)
(§3) The fungi ① , ② , ③ and ⑤ are classified as fungi imperfecti, and the fungus ④ as blue stain fungus.
(§4) The Culture medium comprised the potato-sap agar culture medium (specified in the Japan Industrial Standard (JIS) Z 2911- 1960) of 50 ml, put in the conical flask of 100 ml, sterilized by steam at 1.4-1.6 kgf/cm² .G (137.2-156.8 KPa) for 30 minutes.
(§5) The fungi to be used were inoculated into the culture medium specified in the previous section and were cultured at 26 ± 2 °C under the relative humidity of 70-80 % for two weeks.
(§6) The potato sap of 50 ml, sterilized, cooled to room temperature and to which dioctyl sodium sulfosuccinate, a wetting agent, was added so as to become 0.005 %, was dropped to the fully breeding fungi layer, and was agitated with a platinum spatula in such a way that the spore was torn off. The resulting liquid filtered by sterilized gauze was the spore suspension.
(§7) 3-5-1 A Petri dish measured 90-100 mm in diameter and 20 mm in height.
(§8) 3-5-2 Agar liquid (which has no nutrients) of 2 % sterilized by steam was dropped onto the Petri dish sterilized by dry heat, and then was solidified.
(§9) 3-5-3 Three mm diameter sterilized glass bars or plastic nets made of polypropylene, etc. were placed to prevent the test specimens from touching with agar directly.
(§10) 3-6-1 The type of trees for wood specimens was beech. The cross section was of grain face, and the dimension was 20 mm wide 3 mm thick and 50 mm long.
(§11) 3-6-2 Wood specimens were supplied with nutrients in such a way that they were dipped into the potato-sap (the one in the section 3-2, but agar was not added) for 3 minutes.
(§12) 3-6-3 Nutrient-supplied wood specimens, after drying at 60 °C, were used for testing immediately. They were temporarily stored at 0 °C, but they were served to tests as soon as possible.
(§13) The test specimens were of two types, treated and untreated speciments. The treated specimens referred to the one treated with fungicide. The untreated specimens were of two types, the one really untreated and the other treated with solvent only.
(§14) 3-7-2-1 Nutrients-supplied wood specimens were dried at 60 ± 2 °C, and then their weights (W₀) were measured. Test specimens of 10-20 pieces were piled up in a one liter beaker in such a way that two specimens constant space apart from each other were alternately put on the other two specimens also constant space apart from each other. On the top of the two specimens, a weight was placed. Through the test specimens thus arranged, the fungicide solution was introduced. The level of the fungicide solution was one centimeter above the top specimens. The test specimens were dipped for three minutes after the fungicide solution introduction.
(§15) After finishing dipping, the test specimens were wiped softly, and then the weights (W₁) were measured immediately. As control experiment, the same procedure as the above was done using solvent without fungicide.
(§16) 3-7-2-2 The amounts of solution pick-up and fungicide pick-up were calculated with the following equations: The amount of solution absorption: RL = W₁ - W₀ [formula] The amount of fungicide absorption: Rc = RL × fungicide concentration [formula] 3-7-2-3 Wood specimens treated were placed without contacting each other, then were air-dried for two days, and then served as the treated test specimens. […]

[2] = tested on: Coriolus versicolor(L. ex Fr.) Quélet, FFPRI 1030; test: Preserving activity for wood preservatives (weight loss of treated wood); settings: beech sapwood specimens, 110 ± 10 g/m² preservative applied (0.5% xylene solution per table note), eight weeks at 26 ± 2 °C; lower = higher preserving activity
Description: (§17) This test was conducted according to Specification No.1 of Japan Wood Preserving Association, enacted in 1979, amended in 1989 and titled "Test methods of preserving activity for wood preservatives used in the coating, spraying and dipping treatment".
(§18) • ① Tyromyces palustris (Ber. et Curt.) Murr., FFPRI 0507 --"Ouzuratake" • ② Coriolus versicolor(L. ex Fr.) Quélet, FFPRI 1030 --"Kawaratake"
(§19) These two fungi are classified as wood rot fungi.
(§20) Culture media comprised culture jars (cylindrical jars of bottom diameter 8-9 cm, opening diameter 6-7 cm and height 15-18 cm), in which quartz sand of 250 g (the size of which corresponds to 20-30 mesh) was put first, and then the solution of 70 ml containing 2.0 % malt extracts and 1.0 % peptone was introduced, over which chips of the beech or other broadleaf tree were spread at about 2 mm thickness, and then sterilized at 120 °C for 30 minutes in the wet heated sterilizer.
(§21) Fungi were cultured at 26 ± 2 °C with shaking using the culture solution of 2.0 % malt extracts and 1.0 % peptone. After sufficient breeding was obtained, the fungi solution of about 3 ml was spread all over the culture medium, and then the fungi were cultured at 26 ± 2 °C with the relative humidity of over 70 %. After 10-15 days when the fungi layer sufficiently covered the culture medium, the fungi were served for the tests.
(§22) Wood specimens were the sapwood of intact cedar and beech, the dimension of which was 5 mm thick, 20 mm wide and 40 mm long. The grain face was of 20 mm width and 40 mm length. The side faces were treated with cold-setting epoxy resin.
(§23) The antimicrobial operation was performed with specifying types of fungi for corresponding type of trees. The combinations were as follows: Cedar----Tyromyces palustris ("Ouzuratake") Beech----Coriolus versicolor ("Kawaratake")
(§24) The test specimens were of two types, treated and untreated specimens, respectively.
(§25) The treated specimens referred to the wood specimens coated by brushing, spraying or dipping with wood preservatives. The amount of applied preservatives was 110 ± 10 g/m².
(§26) The amount of applied preservatives for each test specimen was calculated by the following equation:
(§27) The amount of applied preservatives (g/m²)=(W₁-W₂)/A wherein W₁ : weight of the test specimen after absorption(g), W₂ : weight of the test specimen before absorption(g) and A: surface area of test specimen except both butt surfaces (m²)
(§28) 2-7-1 The test specimens prepared in the previous section were dried at 60 ± 2 °C with a recirculating dryer for 48 hours, and were allowed to stand in a desiccator for about 30 minutes, and then the weight (W₃) was measured to an accuracy of 0.01 g.
(§29) 2-7-2 Three of each treated and untreated specimens were assembled in the Teflon casing. After sterilizing, the two assemblies were put on their 40 × 5 mm face on the fungi layer in the separate jar. They were kept at 26 ± 2 °C under the relative humidity of over 70 % for eight weeks.
(§30) 2-7-3 After the eight weeks had elapsed, the test specimens were taken out, and mycelia and other attachments of them were removed neatly. After air-drying for 24 hours, the test specimens were dried at 60 ± 2 °C in a recirculating dryer for 48 hours, and were allowed to stand in a desiccator for about 30 minutes, and then the weight (W₄) was measured to an accuracy of 0.01 g.
(§31) The test results were presented by the ratio of average weight loss of test specimens due to antimicrobial operation. The standard deviation and coefficient of variation were also determined. The ratio of weight loss for each test specimen was calculated by the following equation, and its average was also determined: The ratio of weight loss(%) = (W₃ - W₄) / W₃ × 100 [formula] . Lower value of the ratio of weight loss corresponds to higher wood preserving activity. […]

[3] = tested on: Tyromyces palustris (Ber. et Curt.) Murr., FFPRI 0507; test: as above; settings: cedar sapwood specimens, 110 ± 10 g/m² preservative applied (0.5% xylene solution per table note), eight weeks at 26 ± 2 °C; lower = higher preserving activity
Description: as §17, §18, §19, §20, §21, §22, §23, §24, §25, §26, §27, §28, §29, §30, §31

[4] = tested on: Aureobasidium pullulans (de Bary) Arnaud IFO 6353; test: Fungicide activity for wood fungicide (rating of fungi growth on treated wood); settings: beech specimens dipped 3 min in fungicide solution, 4 weeks culture; rating 0 (no growth) to 3; mean of 6 specimens
Description: as §1, §2, §3, §4, §5, §6, §7, §8, §9, §10, §11, §12, §13, §14, §15, §16

[5] = tested on: Aspergillus niger van Tieghem IFO 6341; test: as above; settings: beech specimens dipped 3 min in fungicide solution, 4 weeks culture; rating 0 (no growth) to 3; mean of 6 specimens
Description: as §1, §2, §3, §4, §5, §6, §7, §8, §9, §10, §11, §12, §13, §14, §15, §16

[6] = tested on: Rhizopus javanicus Takeda IFO 6354; test: as above; settings: beech specimens dipped 3 min in fungicide solution, 4 weeks culture; rating 0 (no growth) to 3; mean of 6 specimens
Description: as §1, §2, §3, §4, §5, §6, §7, §8, §9, §10, §11, §12, §13, §14, §15, §16

[7] = tested on: Penicillium funiculosum Thom IFO 6345; test: as above; settings: beech specimens dipped 3 min in fungicide solution, 4 weeks culture; rating 0 (no growth) to 3; mean of 6 specimens
Description: as §1, §2, §3, §4, §5, §6, §7, §8, §9, §10, §11, §12, §13, §14, §15, §16

[8] = tested on: Gliocladium virens Miller, Gidden & Fosteb IFO 6355; test: as above; settings: beech specimens dipped 3 min in fungicide solution, 4 weeks culture; rating 0 (no growth) to 3; mean of 6 specimens
Description: as §1, §2, §3, §4, §5, §6, §7, §8, §9, §10, §11, §12, §13, §14, §15, §16

CCCCNC(=O)OCC#CI [R, I-C≡CCH₂O-CO-NH(CH₂)₃CH₃, reference compound]
damage value ([1]; D = S₁ / S₀ × 100, untreated 100.0, lower = higher fungicide activity): 13.3
Sum (of average rating values A₁ to A₅) ([1]; S = A₁ + A₂ + A₃ + A₄ + A₅, untreated 15.0): 2.0
Ratio of weight loss (%), C. versicolor [2]: 6.4%
Ratio of weight loss (%), T. palustris [3]: 1.3%
Average rating value, A₄ : Aureobasidium pullulans (IFO 6353) [4]: 0.0
Average rating value, A₁ : Aspergillus Niger (IFO 6341) [5]: 0.0
Average rating value, A₃ : Rhizopus javanicus (IFO 6354) [6]: 2.0
Average rating value, A₂ : Penicillium funiculosum (IFO 6345) [7]: 0.0
Average rating value, A₅ : Gliocladium virens (IFO 6355) [8]: 0.0

From EP0519427A2, “N-substituted-3-iodopropiolamide, production and use thereof” (priority 1991, dated 1992)
